How the values were obtained:
Type in all cases: physicochemical
[1] = Phase equilibration of form mixtures, relative stability of Compound 1 Phosphate forms (XRPD); settings: mixture of Forms I, II
Procedure: The relative stability of the three forms (Forms I, II, and III) as well as amorphous form of Compound 1 Phosphate studied and compared by phase equilibration of mixture experiments in EtOH and in a mixture solvent of EtOH/H2O (9/1). As summarized in Table 16, Compound 1 Phosphate (Form I) was mixed and slurred with other forms in EtOH and in a mixed solvent of EtOH/H2O (9/1) at 50° C. for 6 h respectively.

[2] = Solubility measurement of Compound 1 Phosphate, saturated in different solvent systems, measured by HPLC; settings: DCM, 50° C. column, measured at 40° C.
[3] = as above
Procedure: The Compound 1 Phosphate sample was saturated in different solvent systems (Table 4) at 25° C. and 50° C., respectively. Each solubility was measured by HPLC.

With `COc1cc2[nH]nc(-c3ccc(N4CCN5C[C@H](O)C[C@H]5C4)nc3)c2nc1-c1cccc(C)c1C.O=P(O)(O)O` [Compound 1 Phosphate, (7R,8aS)-2-(5-(5-(2,3-dimethylphenyl)-6-methoxy-1H-pyrazolo[4,3-b]pyridin-3-yl)pyridin-2-yl)octahydropyrrolo[1,2-a]pyrazin-7-ol phosphate] the “Product Solid Form” value ([1]; III and Amorphous slurried in EtOH at 50° C. for 6 h) was “transformed to Form I”, the “Product Solid Form” value ([1]; III and Amorphous slurried in EtOH/H2O (9/1) at 50° C. for 6 h) was “transformed to Form I” and the Solubility [2] was 0.05 (40° C.) mg/mL. It also gave a Solubility ([3]; 1,4-dioxane, 25° C.) of 0.15 mg/mL, a Solubility ([3]; 1,4-dioxane, 50° C.) of 0.23 mg/mL and a Solubility ([3]; 2-Butanone, 25° C.) of 0.10 mg/mL. For the same compound, the Solubility ([3]; 2-Butanone, 50° C.) was 0.13 mg/mL, the Solubility ([3]; Acetone, 25° C.) was 0.07 mg/mL and the Solubility ([3]; Acetone, 50° C.) was 0.10 mg/mL. For the same compound, the Solubility ([3]; CH3CN, 25° C.) was under 0.01 mg/mL, the Solubility ([3]; CH3CN, 50° C.) was 0.01 mg/mL and the Solubility ([3]; CHCl3, 25° C.) was 0.06 mg/mL. For the same compound, the Solubility ([3]; CHCl3, 50° C.) was 0.13 mg/mL, the Solubility ([3]; DCM, 25° C.) was 0.03 mg/mL and the Solubility ([3]; DMF, 25° C.) was 14.41 mg/mL. It also gave a Solubility ([3]; DMF, 50° C.) of 19.06 mg/mL, a Solubility ([3]; DMSO, 25° C.) of 33.74 mg/mL and a Solubility ([3]; DMSO, 50° C.) of 44.99 mg/mL. It also gave a Solubility ([3]; EtOAc, 25° C.) of 0.05 mg/mL, a Solubility ([3]; EtOAc, 50° C.) of 0.06 mg/mL and a Solubility ([3]; EtOH, 25° C.) of 0.53 mg/mL. The Solubility ([3]; EtOH, 50° C.) was 0.68 mg/mL, the Solubility ([3]; Ethyl formate, 25° C.) was 0.12 mg/mL and the Solubility ([3]; Ethyl formate, 50° C.) was 0.14 mg/mL. For the same compound, the Solubility ([3]; H2O, 25° C.) was 0.26 mg/mL, the Solubility ([3]; H2O, 50° C.) was 1.10 mg/mL and the Solubility ([3]; Heptane, 25° C.) was under 0.01 mg/mL. The Solubility ([3]; Heptane, 50° C.) was under 0.01 mg/mL, the Solubility ([3]; IPA, 25° C.) was 0.23 mg/mL and the Solubility ([3]; IPA, 50° C.) was 0.28 mg/mL. The Solubility ([3]; IPAc, 25° C.) was 0.02 mg/mL, the Solubility ([3]; IPAc, 50° C.) was 0.03 mg/mL and the Solubility ([3]; MIBK, 25° C.) was 0.16 mg/mL. For the same compound, the Solubility ([3]; MIBK, 50° C.) was 0.16 mg/mL, the Solubility ([3]; MTBE, 25° C.) was 0.06 mg/mL and the Solubility ([3]; MTBE, 50° C.) was 0.07 mg/mL. It also gave a Solubility ([3]; MeOEtOH, 25° C.) of 4.14 mg/mL, a Solubility ([3]; MeOEtOH, 50° C.) of 5.57 mg/mL and a Solubility ([3]; MeOH, 25° C.) of 2.26 mg/mL. It also gave a Solubility ([3]; MeOH, 50° C.) of 2.44 mg/mL, a Solubility ([3]; THF, 25° C.) of 0.06 mg/mL and a Solubility ([3]; THF, 50° C.) of 0.07 mg/mL. For the same compound, the Solubility ([3]; Toluene, 25° C.) was under 0.01 mg/mL, the Solubility ([3]; Toluene, 50° C.) was 0.02 mg/mL and the “Solubility (almost insoluble)” value ([3]; in CH3CN, CHCl3, DCM, 1,4-dioxane, MIBK, toluene, THF, acetone, n-BuOH, MTBE, EtOH, EtOAc, ethyl formate, heptane, iso-butyl acetate, IPAc, n-PrOH, IPA, MEK at 25° C. and 50° C., and in H2O at 25° C.) was under 1 mg/mL. For the same compound, the “Solubility (relatively good solubility)” value ([3]; in DMF and DMSO, at both 25° C. and 50° C.) was over 10 mg/mL, the “Solubility (slightly soluble)” value ([3]; in MeOH and MeOEtOH at 25° C. and 50° C., and in H2O at 50° C.) was 1 to 10 mg/mL and the Solubility ([3]; iso-Butyl acetate, 25° C.) was 0.11 mg/mL. It also gave a Solubility ([3]; iso-Butyl acetate, 50° C.) of 0.15 mg/mL, a Solubility ([3]; n-BuOH, 25° C.) of 0.36 mg/mL and a Solubility ([3]; n-BuOH, 50° C.) of 0.47 mg/mL. The Solubility ([3]; n-PrOH, 25° C.) was 0.40 mg/mL and the Solubility ([3]; n-PrOH, 50° C.) was 0.40 mg/mL.
